Source: PubChem BioAssay (NCI)
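Protocol summary: plate cells (96-well), add compound at 5 concentrations, incubate 48 h, interpolate endpoints linearly. TGI denotes the concentration required for complete inhibition of growth.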

Columns and labels:
Assay in all cases: DTP human tumour cell line panel, 48 h
HCT-15 colon = test system: HCT-15 colon
SK-MEL-5 melanoma = test system: SK-MEL-5 melanoma
SNB-75 CNS = test system: SNB-75 CNS
SK-OV-3 ovarian = test system: SK-OV-3 ovarian
IGROV1 ovarian = test system: IGROV1 ovarian
SNB-19 CNS = test system: SNB-19 CNS
NCI-H522 lung = test system: NCI-H522 lung
UACC-62 melanoma = test system: UACC-62 melanoma
DMS 273 small cell lung = test system: DMS 273 small cell lung
A549 NSCLC = test system: A549 NSCLC
K-562 leukemia = test system: K-562 leukemia
UO-31 renal = test system: UO-31 renal
DMS 114 small cell lung = test system: DMS 114 small cell lung
786-0 renal = test system: 786-0 renal
LXFL 529 NSCLC = test system: LXFL 529 NSCLC
CAKI-1 renal = test system: CAKI-1 renal
UACC-257 melanoma = test system: UACC-257 melanoma
EKVX NSCLC = test system: EKVX NSCLC
SF-539 CNS = test system: SF-539 CNS
NCI-H460 lung = test system: NCI-H460 lung
MALME-3M melanoma = test system: MALME-3M melanoma
HT29 colon = test system: HT29 colon
DLD-1 colon = test system: DLD-1 colon
OVCAR-4 ovarian = test system: OVCAR-4 ovarian
CCRF-CEM leukemia = test system: CCRF-CEM leukemia
HCT-116 colon = test system: HCT-116 colon
TK-10 renal = test system: TK-10 renal
KM12 colon = test system: KM12 colon
SN12C renal = test system: SN12C renal
NCI-H226 lung = test system: NCI-H226 lung
OVCAR-5 ovarian = test system: OVCAR-5 ovarian
KM20L2 colon = test system: KM20L2 colon
HOP-18 NSCLC = test system: HOP-18 NSCLC
SF-295 CNS = test system: SF-295 CNS
A498 renal = test system: A498 renal
SK-MEL-28 melanoma = test system: SK-MEL-28 melanoma
LOX IMVI melanoma = test system: LOX IMVI melanoma
SR leukemia = test system: SR leukemia
HL-60(TB) leukemia = test system: HL-60(TB) leukemia
ACHN renal = test system: ACHN renal
OVCAR-3 ovarian = test system: OVCAR-3 ovarian
HOP-92 NSCLC = test system: HOP-92 NSCLC
SW-620 colon = test system: SW-620 colon
COLO 205 colon = test system: COLO 205 colon
OVCAR-8 ovarian = test system: OVCAR-8 ovarian
NCI-H23 lung = test system: NCI-H23 lung
U251 CNS = test system: U251 CNS
SK-MEL-2 melanoma = test system: SK-MEL-2 melanoma
M14 melanoma = test system: M14 melanoma
HCC-2998 colon = test system: HCC-2998 colon
MOLT-4 leukemia = test system: MOLT-4 leukemia
SF-268 CNS = test system: SF-268 CNS
HOP-62 NSCLC = test system: HOP-62 NSCLC
M19-MEL melanoma = test system: M19-MEL melanoma
RPMI-8226 leukemia = test system: RPMI-8226 leukemia
RXF 393 renal = test system: RXF 393 renal

In the case of `COC(=O)C1Cc2c([nH]c3ccccc23)C(c2ccccc2O)N1` (configuration not stated), the TGI (HCT-15 colon) is reported as > 100 µM, the TGI (SK-MEL-5 melanoma) is reported as > 100 µM and the TGI (SNB-75 CNS) is reported as > 100 µM. For the same compound, the TGI (SK-OV-3 ovarian) was > 100 µM, the TGI (IGROV1 ovarian) was > 100 µM and the TGI (SNB-19 CNS) was > 100 µM. The TGI (NCI-H522 lung) was > 100 µM, the TGI (UACC-62 melanoma) was > 100 µM and the TGI (DMS 273 small cell lung) was > 100 µM. For the same compound, the TGI (A549 NSCLC) was > 100 µM, the TGI (K-562 leukemia) was > 100 µM and the TGI (UO-31 renal) was 97.9 µM. For the same compound, the TGI (DMS 114 small cell lung) was > 100 µM, the TGI (786-0 renal) was > 100 µM and the TGI (LXFL 529 NSCLC) was > 100 µM. The TGI (CAKI-1 renal) was > 100 µM, the TGI (UACC-257 melanoma) was > 100 µM and the TGI (EKVX NSCLC) was > 100 µM. The TGI (SF-539 CNS) was > 100 µM, the TGI (NCI-H460 lung) was 47.1 µM and the TGI (MALME-3M melanoma) was > 100 µM. The TGI (HT29 colon) was > 100 µM, the TGI (DLD-1 colon) was > 100 µM and the TGI (OVCAR-4 ovarian) was > 100 µM. For the same compound, the TGI (CCRF-CEM leukemia) was > 100 µM, the TGI (HCT-116 colon) was > 100 µM and the TGI (TK-10 renal) was > 100 µM. The TGI (KM12 colon) was > 100 µM, the TGI (SN12C renal) was > 100 µM and the TGI (NCI-H226 lung) was > 100 µM. For the same compound, the TGI (OVCAR-5 ovarian) was > 100 µM, the TGI (KM20L2 colon) was > 100 µM and the TGI (HOP-18 NSCLC) was > 100 µM. For the same compound, the TGI (SF-295 CNS) was > 100 µM, the TGI (A498 renal) was > 100 µM and the TGI (SK-MEL-28 melanoma) was > 100 µM. For the same compound, the TGI (LOX IMVI melanoma) was > 100 µM, the TGI (SR leukemia) was > 100 µM and the TGI (HL-60(TB) leukemia) was 75.4 µM. The TGI (ACHN renal) was > 100 µM, the TGI (OVCAR-3 ovarian) was > 100 µM and the TGI (HOP-92 NSCLC) was > 100 µM. For the same compound, the TGI (SW-620 colon) was > 100 µM, the TGI (COLO 205 colon) was 93.8 µM and the TGI (OVCAR-8 ovarian) was > 100 µM. For the same compound, the TGI (NCI-H23 lung) was > 100 µM, the TGI (U251 CNS) was > 100 µM and the TGI (SK-MEL-2 melanoma) was > 100 µM. The TGI (M14 melanoma) was > 100 µM, the TGI (HCC-2998 colon) was > 100 µM and the TGI (MOLT-4 leukemia) was > 100 µM.
With `NC1=NS(=O)(=O)Nc2nc(-c3ccc(Cl)cc3)[nH]c21` the TGI (HCT-15 colon) was > 100 µM, the TGI (SK-MEL-5 melanoma) was > 100 µM and the TGI (SNB-75 CNS) was > 100 µM. For the same compound, the TGI (SK-OV-3 ovarian) was > 100 µM, the TGI (IGROV1 ovarian) was > 100 µM and the TGI (SNB-19 CNS) was > 100 µM. The TGI (NCI-H522 lung) was > 100 µM, the TGI (UACC-62 melanoma) was > 100 µM and the TGI (DMS 273 small cell lung) was > 100 µM. For the same compound, the TGI (A549 NSCLC) was > 100 µM, the TGI (K-562 leukemia) was > 100 µM and the TGI (SF-268 CNS) was > 100 µM. The TGI (UO-31 renal) was > 100 µM, the TGI (DMS 114 small cell lung) was > 100 µM and the TGI (786-0 renal) was > 100 µM. The TGI (LXFL 529 NSCLC) was > 100 µM, the TGI (CAKI-1 renal) was > 100 µM and the TGI (SF-539 CNS) was > 100 µM. For the same compound, the TGI (NCI-H460 lung) was > 100 µM, the TGI (MALME-3M melanoma) was > 100 µM and the TGI (HT29 colon) was > 100 µM. For the same compound, the TGI (DLD-1 colon) was > 100 µM, the TGI (OVCAR-4 ovarian) was > 100 µM and the TGI (CCRF-CEM leukemia) was > 100 µM. The TGI (HCT-116 colon) was > 100 µM, the TGI (TK-10 renal) was > 100 µM and the TGI (KM12 colon) was > 100 µM. For the same compound, the TGI (SN12C renal) was > 100 µM, the TGI (OVCAR-5 ovarian) was > 100 µM and the TGI (HOP-62 NSCLC) was > 100 µM. The TGI (KM20L2 colon) was > 100 µM, the TGI (M19-MEL melanoma) was > 100 µM and the TGI (HOP-18 NSCLC) was > 100 µM. The TGI (SF-295 CNS) was > 100 µM, the TGI (A498 renal) was > 100 µM and the TGI (SK-MEL-28 melanoma) was > 100 µM. The TGI (LOX IMVI melanoma) was > 100 µM, the TGI (SR leukemia) was > 100 µM and the TGI (HL-60(TB) leukemia) was > 100 µM. For the same compound, the TGI (ACHN renal) was > 100 µM, the TGI (RPMI-8226 leukemia) was > 100 µM and the TGI (OVCAR-3 ovarian) was > 100 µM. The TGI (HOP-92 NSCLC) was > 100 µM, the TGI (SW-620 colon) was > 100 µM and the TGI (COLO 205 colon) was > 100 µM. For the same compound, the TGI (OVCAR-8 ovarian) was > 100 µM, the TGI (NCI-H23 lung) was > 100 µM and the TGI (U251 CNS) was > 100 µM. For the same compound, the TGI (SK-MEL-2 melanoma) was > 100 µM, the TGI (M14 melanoma) was > 100 µM and the TGI (HCC-2998 colon) was > 100 µM. The TGI (MOLT-4 leukemia) was > 100 µM.
In the case of `CCOC(=O)N1Cc2ccoc2C1`, the TGI (HCT-15 colon) is reported as > 100 µM, the TGI (SK-MEL-5 melanoma) is reported as > 100 µM and the TGI (SNB-75 CNS) is reported as > 100 µM. The TGI (SK-OV-3 ovarian) was > 100 µM, the TGI (IGROV1 ovarian) was > 100 µM and the TGI (RXF 393 renal) was > 100 µM. For the same compound, the TGI (SNB-19 CNS) was > 100 µM, the TGI (NCI-H522 lung) was > 100 µM and the TGI (UACC-62 melanoma) was > 100 µM. The TGI (DMS 273 small cell lung) was > 100 µM, the TGI (A549 NSCLC) was > 100 µM and the TGI (K-562 leukemia) was > 100 µM. The TGI (SF-268 CNS) was > 100 µM, the TGI (UO-31 renal) was > 100 µM and the TGI (DMS 114 small cell lung) was > 100 µM. For the same compound, the TGI (786-0 renal) was > 100 µM, the TGI (LXFL 529 NSCLC) was > 100 µM and the TGI (UACC-257 melanoma) was > 100 µM. The TGI (EKVX NSCLC) was > 100 µM, the TGI (SF-539 CNS) was > 100 µM and the TGI (NCI-H460 lung) was > 100 µM. The TGI (MALME-3M melanoma) was > 100 µM, the TGI (HT29 colon) was > 100 µM and the TGI (DLD-1 colon) was > 100 µM. For the same compound, the TGI (OVCAR-4 ovarian) was > 100 µM, the TGI (CCRF-CEM leukemia) was > 100 µM and the TGI (HCT-116 colon) was > 100 µM. The TGI (TK-10 renal) was > 100 µM, the TGI (KM12 colon) was > 100 µM and the TGI (SN12C renal) was > 100 µM. For the same compound, the TGI (NCI-H226 lung) was > 100 µM, the TGI (OVCAR-5 ovarian) was > 100 µM and the TGI (HOP-62 NSCLC) was > 100 µM. For the same compound, the TGI (KM20L2 colon) was > 100 µM, the TGI (M19-MEL melanoma) was > 100 µM and the TGI (HOP-18 NSCLC) was > 100 µM. For the same compound, the TGI (SF-295 CNS) was > 100 µM, the TGI (SK-MEL-28 melanoma) was > 100 µM and the TGI (LOX IMVI melanoma) was > 100 µM. For the same compound, the TGI (SR leukemia) was > 100 µM, the TGI (HL-60(TB) leukemia) was > 100 µM and the TGI (ACHN renal) was > 100 µM. The TGI (RPMI-8226 leukemia) was > 100 µM, the TGI (OVCAR-3 ovarian) was > 100 µM and the TGI (HOP-92 NSCLC) was > 100 µM. The TGI (SW-620 colon) was > 100 µM, the TGI (COLO 205 colon) was > 100 µM and the TGI (OVCAR-8 ovarian) was > 100 µM. For the same compound, the TGI (NCI-H23 lung) was > 100 µM, the TGI (U251 CNS) was > 100 µM and the TGI (SK-MEL-2 melanoma) was > 100 µM. The TGI (M14 melanoma) was > 100 µM, the TGI (HCC-2998 colon) was > 100 µM and the TGI (MOLT-4 leukemia) was > 100 µM.
